Reference: patent publication US20250235429A1, “TREATMENT OF DISEASES VIA ADMINISTRATION OF BUNTANETAP AND AN ANTIDIABETIC AGENT” (ANNOVIS BIO, INC., priority 2024, published 2025)
Marks after values point to notes of the source that are not given here.

Experiments:
APP/PS1 transgenic mice = assay: 2-day radial arm water maze (RAWM), spatial memory; assay type: in vivo
Protocol: (§1) Animals: Heterozygous double transgenic mice expressing both human APP (K670N:M671L) and human PS1 (M146L) (line 6.2) and their wild-type non-transgenic littermates, both males and females, were used for these experiments. They were obtained by a breeding colony maintained at the animal facility of Columbia University. They were genotyped through PCR on tail samples. Animals were injected i.p. from the age of […] for 1 month prior to starting behavioral assessment which lasted for 2 weeks during which treatment continued. Behavioral assessment examined spatial and associative memory. Finally, mice were sacrificed for electrophysiological assessment of synaptic function.
(§2) Mice were coded to blind investigators with respect to genotype and treatment. Results were expressed with Standard Error of the Mean (SEM). Level of significance was set for p<0.05. Results were analyzed by ANOVA analysis with post-hoc correction with the combination or genotype as main effect. Experiments were designed in a balanced fashion, and mice were trained and tested at each of the different conditions in 3 or 4 separate experiments.
Mice were i.p. injected with the drug from the age of 8 weeks prior to plaque appearance until behavioral assessment that started at 12 weeks of age and lasted for 2 weeks.
Spatial memory was studied with the 2-day radial arm water maze (RAWM) test. The task is a hybrid of the Morris Water Maze (MWM) and the radial arm land maze. The motivation for the animals is immersion in water. The mouse needs to swim in 6 alleys (arms) radiating from a central area until it finds a hidden (submerged) platform at the end of one of the arms, based on visual cues placed in the room. In the old RAWM version of the task, the goal arm varies from day to day, requiring 21 days of training in wild-type mice to reach the learning criterion. In the new version of the task, the goal arm is kept constant for all trials, with a different start arm on successive trials, such that the learning criterion will be reached in 2 days. The first day of the protocol was a training day. Mice were trained to identify the platform location by alternating between a visible and a hidden platform in a goal arm. The final 3 trials on day 1 and all 15 trials on day 2 used a hidden escape platform to force mice to use spatial cues to identify the location of the goal arm. To avoid learning limitations imposed by exhausting practice and to avoid fatigue that may result from consecutive trials, spaced practice training was established by running the mice in cohorts of 4 and alternating different cohorts through the 15 training trials over 3 hours testing periods each day. On day 1, a visible platform was laced in a goal location. Mouse 1 of cohort 1 was gently placed in the pool near the perimeter of the wall of the first start arm (specified on a score sheet) and facing the center of the pool. The number of incorrect arm entries (entries in arms with no platform) was counted. If the animal enters the incorrect arm it was gently pulled back to the start arm. Each trial lasted up to 1 min. Failure to select an arm after 15 sec was counted as an error and the mouse was returned to the start arm. After 1 min, if the platform had not been located, the mouse was guided gently through the water by placing a hand behind it to direct it towards the platform. The mouse rested on the platform for 15 sec. After completing the trial, the mouse was removed from the pool, gently towel dried and placed back into its cage under a heat lamp. The goal platform location was different for each mouse. […] After each mouse from cohort 1 completed six alternating trials between visible and hidden platforms, the mice were left to rest under a heating source, and mice from the second cohort were tested in the same way.

aSYN = details: neuroblastoma cells; cited from earlier work
[1] = test system: patients with mild to moderate AD; assay: Phase II/III dose-ranging study of buntanetap in mild to moderate AD (ADAS-Cog 11); assay type: in vivo, human
Protocol: A randomized, double-blind, placebo-controlled Phase II/III study trial investigating the efficacy, safety, and tolerability of buntanetap in patients with mild to moderate AD was conducted. This was a dose-ranging study where patients received either one of three doses of buntanetap (7.5 mg, 15 mg, or 30 mg) or placebo on top of their standard of care for 12 weeks. In this study, over 700 patients were screened, a total of 353 patients were enrolled, and 325 patients completed the study across 54 sites in the US. The study included mild to moderate AD patients whose Mini Mental State Examination (MMSE) scores at baseline ranged from 14 to 24. (www.clinicaltrials.gov (NCT05686044)).
Beyond safety, the trial assessed the changes in two co-primary endpoints: Alzheimer's Disease Assessment Scale-Cognitive Subscale 11 (ADAS-Cog 11) and Alzheimer's Disease Cooperative Study Clinician's Global Impression of Change (ADCS-CGIC), which assess cognition and activities of daily living. The study monitored for safety and collected plasma to measure several biomarkers to assess the disease state, potential disease progression, and treatment effects.

[2] = test system: human SNCAA53T tg mouse model of PD; details: cited from earlier work
[3] = test system: APP/PS1 transgenic (tg) mouse model of AD; details: cited from earlier work
[4] = test system: fully differentiated Down syndrome nerve cells; details: cited from earlier work
[5] = test system: hippocampal slices APP/PS1 transgenic mice; assay: Electrophysiological study: long-term potentiation (LTP) in hippocampal slices; assay type: in vivo
Protocol: as §1, §2
Mice were i.p. injected with the drug from the age of 8 weeks prior to plaque appearance until euthanasia for collecting slices at the age of 14-16 weeks. The treatment with Buntanetap was daily, whereas the treatment with dulaglutide was twice a week.
Electrophysiological analysis was performed on 400 μm hippocampal slices, cut with a tissue chopper and maintained in an interface chamber at 29° C. for 90 min prior to recording. Briefly, CA1 fEPSPs were recorded by placing both the stimulating and the recording electrodes in CA1 stratum radiatum. Basal synaptic transmission was assayed, either by plotting the stimulus voltages against slopes of fEPSP, or by plotting the peak amplitude of the fiber volley against the slope of the fEPSP. For LTP experiments, a 15 min baseline was recorded every min at an intensity that evokes a response ˜35% of the maximum evoked response. LTP was induced using θ-burst stimulation (4 pulses at 100 Hz, with the bursts repeated at 5 Hz and each tetanus including 3 ten-burst trains separated by 15 see). Data was subjected to statistical analyses to determine the effects of combination on inhibiting synaptic dysfunction.

[6] = APP/PS1 mice, Buntanetap 1 mg/Kg and/or dulaglutide 0.1 mg/Kg

SMILES: CN1CC[C@]2(C)c3cc(OC(=O)Nc4ccccc4)ccc3N(C)C12 (stereo partly drawn) [Buntanetap, (3aR)-1,3a,8-trimethyl-1,2,3,3a,8,8a-hexahydropyrrolo[2,3-b]indol-5-yl phenylcarbamate]
- % Improvement (RAWM errors) (APP/PS1 transgenic mice; APP/PS1, Buntanetap 1 mg/kg): 29.4%
- Meran Number of Errors (RAWM) (APP/PS1 transgenic mice; APP/PS1, Buntanetap 1 mg/kg): 2.8
- Meran Number of Errors (RAWM) (APP/PS1 transgenic mice; APP/PS1, Buntanetap 10 mg/kg): 1.6
- % Improvement (RAWM errors) (APP/PS1 transgenic mice; APP/PS1, Buntanetap 10 mg/kg, 100% = difference of 1.7 errors): 100%
- impairment of short-term spatial memory measured through the 2-day radial arm water maze (RAWM) (APP/PS1 transgenic mice; [6]): did not ameliorate
- aSYN in vitro (aSYN): lowers
- Non-Responders (Number) ([1]; 7.5 mg): 5
- Non-Responders (Percentage) ([1]; 7.5 mg): (26.32%)
- Responders (Number) ([1]; 7.5 mg): 14
- Responders (Percentage) ([1]; 7.5 mg): (73.68%)**
- Non-Responders (Number) ([1]; 15 mg): 7
- Non-Responders (Percentage) ([1]; 15 mg): (28.00%)
- Responders (Number) ([1]; 15 mg): 18
- Responders (Percentage) ([1]; 15 mg): (72.00%)**
- Non-Responders (Number) ([1]; 30 mg): 3
- Non-Responders (Percentage) ([1]; 30 mg): (12.50%)
- Responders (Number) ([1]; 30 mg): 21
- Responders (Percentage) ([1]; 30 mg): (87.50%)***
- difference in the proportion of participants who improved relative to placebo ([1]; 30 mg group): three-fold
- improvement in ADAS-Cog 11 scores in each treatment dose relative to placebo ([1]; patients with mild AD, 7.5, 15, 30 mg, 12 weeks): significantly higher improvement
- improvement in cognition ([1]; population with confirmed early AD (FIG. 2B)): dose-dependent improvement
- colonic motility [2]: Restored
- memory and learning ([3]; APP/PS1 transgenic (tg) mouse model of AD): Restored
- impaired synaptic transmission ([3]; hippocampus of APP/PS1 tg mice): Normalized
- anterograde and retrograde vesicle transport [4]: Normalized
- % Improvement (Residual Potential) ([5]; APP/PS1, Buntanetap 1 mg/kg): 4.8%
- Residual Potential (mean) ([5]; APP/PS1, Buntanetap 1 mg/kg i.p. daily): 141.55
- Residual Potential (mean) ([5]; APP/PS1, Buntanetap 10 mg/kg i.p. daily): 213.56
- % Improvement (Residual Potential) ([5]; APP/PS1, Buntanetap 10 mg/kg, 100% = wt veh minus APP/PS1 veh): 90.5%
- impairment of synaptic plasticity measured through Long-term potentiation (LTP) [5, 6]: did not ameliorate
